Experimental data: patent US8389523B2, “Substituted quinoxaline and an agrochemical composition thereof” (Kumiai Chemical Industry Co., Ltd., priority 2007, dated 2013)

Legend:
Assay type in all cases: in vivo
Design in all cases: scale not given here
[1] = tested on: Echinochloa oryzicola Vasing; test: Herbicidal effects in paddy field soil treatment (Test Example 1); conditions: for Herbicidal effects index, Echinochloa oryzicola Vasing: paddy field soil treatment, 1000 g of the active ingredient per hectare, wettable powder added dropwise on water surface, 21st day after treatment
Procedure, shortened: (§1)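 Weed seeds were sown into puddled, leveled paddy soil in pots and flooded to 3 cm water depth. One day later the diluted wettable powder formulation was dropped onto the water surface at 1000 g active ingredient per hectare. Herbicidal effect was scored on day 21 after greenhouse growth.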

[2] = tested on: Monochoria vaginalis (Burm. f.) Presl var. plantaginea (Roxb.) Solms-Laub.; test: as above; conditions: for Herbicidal effects index, Monochoria vaginalis (Burm. f.) Presl var. plantaginea (Roxb.) Solms-Laub.: paddy field soil treatment, 1000 g of the active ingredient per hectare, wettable powder added dropwise on water surface, 21st day after treatment
Procedure, shortened: as §1

[3] = tested on: Scirpus juncoides Roxb. var. ohwianus. T. Koyama; test: as above; conditions: for Herbicidal effects index, Scirpus juncoides Roxb. var. ohwianus. T. Koyama: paddy field soil treatment, 1000 g of the active ingredient per hectare, wettable powder added dropwise on water surface, 21st day after treatment
Procedure, shortened: as §1

[4] = tested on: Abutilon theophrasti medicus; test: Herbicidal effects in upland field soil treatment (Test Example 2); conditions: 1000 g active ingredient per hectare, 21st day after treatment, criteria of Table 138
Procedure, shortened: (§2)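 Pre-emergence soil application: seeds sown in upland field soil, covered, then wettable powder diluted in water sprayed on the soil surface at 1000 g active ingredient/ha in 1000 L/ha. Plants grown in greenhouse; herbicidal effect scored on a rating scale 21 days after treatment.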

[5] = tested on: Amaranthus viridis L.; test: as above; conditions: 1000 g active ingredient per hectare, 21st day after treatment, criteria of Table 138
Procedure, shortened: as §2

[6] = tested on: Abutilon theophrasti medicus; test: Herbicidal effects in upland field foliar treatment (Test Example 3); conditions: criteria of Table 138; for herbicidal effects on Abutilon theophrasti medicus: 1000 g of the active ingredient per hectare, 14th day after the treatment, wettable powder; for herbicidal effect (index) on Abutilon theophrasti medicus: 1000 g active ingredient per hectare, 14th day after treatment
Procedure, shortened: (§3)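 Weeds were sown in upland field soil and grown two weeks in a greenhouse before a foliar spray over the whole plant. Wettable powder was diluted in water and applied at 1000 L/ha, delivering 1000 g active ingredient/ha. Herbicidal effect was scored against set rating criteria 14 days after treatment.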

[7] = tested on: Amaranthus viridis L.; test: as above; conditions: criteria of Table 138; for herbicidal effects on Amaranthus viridis L.: 1000 g of the active ingredient per hectare, 14th day after the treatment, wettable powder; for herbicidal effect (index) on Amaranthus viridis L.: 1000 g active ingredient per hectare, 14th day after treatment
Procedure, shortened: as §3

[8] = tested on: Echinochloa crus-galli (L.) P. Beauv. var. crus-galli; test: as above; conditions: criteria of Table 138; for herbicidal effects on Echinochloa crus-galli (L.) P. Beauv. var. crus-galli: 1000 g of the active ingredient per hectare, 14th day after the treatment, wettable powder; for herbicidal effect (index) on Echinochloa crus-galli (L.) P. Beauv. var. crus-galli: 1000 g active ingredient per hectare, 14th day after treatment
Procedure, shortened: as §3

[9] = paddy field soil treatment (Test Example 1), criteria of Table 138

| Structure (SMILES) | Herbicidal effects index, Echinochloa oryzicola Vasing [1] | Herbicidal effects index, Monochoria vaginalis (Burm. f.) Presl var. plantaginea (Roxb.) Solms-Laub. [2] | Herbicidal effects index, Scirpus juncoides Roxb. var. ohwianus. T. Koyama [3] | herbicidal effect (index) on Abutilon theophrasti medicus [4] | herbicidal effect (index) on Amaranthus viridis L. [5] | herbicidal effects on Abutilon theophrasti medicus [6] | herbicidal effects on Amaranthus viridis L. [7] | herbicidal effects on Echinochloa crus-galli (L.) P. Beauv. var. crus-galli [8] | herbicidal effect (index) on Abutilon theophrasti medicus [6] | herbicidal effect (index) on Amaranthus viridis L. [7] | herbicidal effect (index) on Echinochloa crus-galli (L.) P. Beauv. var. crus-galli [8] | herbicidal effect (index) on Echinochloa oryzicola Vasing [1, 9] | herbicidal effect (index) on Monochoria vaginalis (Burm. f.) Presl var. plantaginea (Roxb.) Solms-Laub. [2, 9] | herbicidal effect (index) on Scirpus juncoides Roxb. var. ohwianus. T. Koyama [3, 9] |
| --- | --- | --- | --- | --- | --- | --- | --- | --- | --- | --- | --- | --- | --- | --- |
| O=C1CCCC(O)=C1C(=O)c1nc2cccnc2n(Cc2ccccc2OC(F)F)c1=O [III-234] | 5 | 5 | 5 | 5 | 5 | 5 | 5 | 5 |  |  |  |  |  |  |
| O=C1CCCC(O)=C1C(=O)c1nc2cccnc2n(CC(F)(F)F)c1=O [III-40] | 5 | 5 | 5 | 5 | 5 | 5 | 5 | 4 |  |  |  |  |  |  |
| COc1ccc2nc(C(=O)C3=C(O)CCCC3=O)c(=O)n(-c3ccccc3)c2c1 [II-252] | 5 | 5 | 5 | 5 | 5 | 5 | 5 | 5 |  |  |  |  |  |  |
| COc1c(Cl)cc(-n2c(=O)c(C(=O)C3=C(O)CCCC3=O)nc3ccccc32)cc1Cl [II-221] | 4 | 5 | 5 | 4 | 5 | 5 | 5 | 5 |  |  |  |  |  |  |
| O=C1CCCC(O)=C1C(=O)c1nc2ccccc2n(CC2CCCO2)c1=O (stereo not drawn) [I-211] | 4 | 5 | 5 | 5 | 5 |  |  |  | 5 | 5 | 5 |  |  |  |
| COc1cc(-n2c(=O)c(C(=O)C3=C(O)CCCC3=O)nc3ccccc32)ccc1Cl [II-167] | 5 | 5 | 5 | 5 | 5 | 5 | 5 | 5 |  |  |  |  |  |  |
| N#Cc1cccc(-n2c(=O)c(C(=O)C3=C(O)CCCC3=O)nc3ccccc32)c1 [II-136] | 5 | 5 | 5 | 5 | 5 | 5 | 5 | 5 |  |  |  |  |  |  |
| O=C1CCCC(O)=C1C(=O)c1nc2cc(F)cc(F)c2n(-c2ccccc2)c1=O [II-261] | 5 | 5 | 5 | 4 | 5 | 5 | 5 | 5 |  |  |  |  |  |  |
| Cn1c(=O)c(C(=O)C2=C(O)CCCC2=O)nc2cc(F)ccc21 [I-220] | 5 | 5 | 5 | 5 | 5 |  |  |  | 5 | 5 | 5 |  |  |  |
| O=C1CCCC(O)=C1C(=O)c1nc2cccc(F)c2n(-c2ccccc2)c1=O [II-243] | 5 | 5 | 5 | 5 | 5 | 5 | 5 | 5 |  |  |  |  |  |  |
| O=C1CCCC(O)=C1C(=O)c1nc2cccnc2n(-c2ccccc2C(F)(F)F)c1=O [IV-34] | 5 | 5 | 5 | 5 | 5 | 5 | 5 | 5 |  |  |  |  |  |  |
| O=C1CCCC(O)=C1C(=O)c1nc2ccccc2n(CC(F)(F)F)c1=O [I-40] | 5 | 5 | 5 | 5 | 5 |  |  |  | 5 | 5 | 5 |  |  |  |
| O=C1CCCC=C1C(=O)c1nc2ccccc2n(-c2ccccc2[N+](=O)[O-])c1=O [II-129] | 5 | 5 | 5 | 5 | 5 | 5 | 5 | 5 |  |  |  |  |  |  |
| O=C1CCCC(O)=C1C(=O)c1nc2ccccc2n(Cc2ccccc2)c1=O [Compound I-107] | 4 | 5 | 5 | 5 | 5 |  |  |  | 5 | 5 | 4 |  |  |  |
| COc1cc(-n2c(=O)c(C(=O)C3=C(O)CCCC3=O)nc3ccccc32)ccc1C [II-168] | 5 | 5 | 5 | 5 | 5 | 5 | 5 | 4 |  |  |  |  |  |  |
| COc1cccc(-n2c(=O)c(C(=O)C3=C(O)CCCC3=O)nc3cccnc32)c1 [IV-57] |  |  |  | 5 | 5 | 5 | 5 | 4 |  |  |  | 4 | 5 | 5 |
| COc1ccc(-n2c(=O)c(C(=O)C3=C(O)CCCC3=O)nc3ccccc32)nc1 [I-180] | 4 | 5 | 5 | 5 | 5 |  |  |  | 5 | 5 | 4 |  |  |  |
| CCc1cccc(-n2c(=O)c(C(=O)C3=C(O)CCCC3=O)nc3ccccc32)c1 [II-23] | 5 | 5 | 5 | 5 | 5 | 5 | 5 | 5 |  |  |  |  |  |  |
